Measured values: patent publication US11638424B2, “Mosquito attractant formulations and uses thereof” (priority 2017, dated 2023)

Experiments:
Format in all cases: in vivo
A. gambiae sensu lato [1] = test: Dual choice attraction bioassay (Y-tube olfactometer); settings: added to RBCs
Experimental: Mosquitoes used in this study were from the laboratory colony of A. gambiae sensu lato (Keele line, University of Glasgow), which was produced by balanced interbreeding of four A. gambiae s.s. strains (H. Hurd, et al. Evolution, 59, 2560-2572 (2005)). Larvae were reared under standard insectary conditions (27±1° C., 70% humidity, 12 h light: 12 h dark cycle) and fed on TetraMin fish flakes (Tetra ltd., Germany). Pupae were transferred into holding cages for emergence. Emerged adults were fed ad libitum on 5% glucose solution, supplemented with 0.05% (w/v) 4-aminobenzoic acid (PABA, Sigma-Aldrich), through soaked filters on top of the 2 ml tubes and with soaked filter pads inside cages. Red blood cells (RBCs) were washed with Roswell Park Memorial Institute (RPMI) medium and stored in RPMI at 50% haematocrit at 4° C. until use. To measure the effect of HMBPP on mosquito fitness, RBCs stored in RPMI were centrifuged at 2500×g for 5 min followed by replacement of the medium with AB serum for a final haematocrit of 40%. HMBPP (stock concentration at 4 mM in Nanopure water, stored at −80° C.) was diluted to 10 μM in 1 ml RBC suspension, and the corresponding volume of Nanopure water was added to the control RBCs. All experiments were, unless otherwise stated, conducted on 5-7 days post-emergence female mosquitoes maintained in separated cages (approximately 210 individuals per cohort) and fed RBCs either with or without HMBPP for 30 min. All experiments were performed in triplicates.
Initial experiments were performed using a Y-tube olfactometer (length of the central cylinder and two arms: 25/15/15 cm respectively, inner diameter: 5 cm; see FIG. 1a). For each experiment, 180 female mosquitoes were individually placed in a release chamber and flown one by one. Females flew towards the upwind end (airflow 3 L min^−1) and entered one of two trapping chambers through which odour released from nearby membrane feeders passed (5 cm distance to each trapping chamber). Three experiments were conducted. In the first experiment, the membrane feeders were loaded with RBCs with or without HMBPP, while in the second they were loaded with serum with or without HMBPP. The third experiment was performed with a 5% glucose with 0.05% PABA solution with or without HMBPP. To control for possible spatial effects, the location of treatment at each olfactometer arm was switched every 30 minutes (˜15 mosquitoes flied one by one in each 30 minutes). Each replacement (feeder rotation with fresh RBCs) was counted as an experimental replicate (experimental block). Mosquitoes reaching any of the trapping chambers were considered to have made a choice. Each experiment was repeated six times with in total 180 mosquitoes per treatment.

A. gambiae s.l. = test: Olfactometer bioassay (larger Y-tube olfactometer / wind tunnel assay); settings: RBCs+CO2 vs hRBCs, FIG. 2A
Experimental: Behavioural experiments were performed using different odour sources with and without pulsed CO2 stimuli in a Plexiglas Y shaped olfactometer (9.5 cm i.d.×length of the central cylinder and two arms: 120/120/120 cm respectively), illuminated from above at 280 lx. A charcoal-filtered and humidified air stream (25±2° C., RH 65±2%) passed through stainless steel mesh screens at 30 cm s^−1 to generate a laminar flow in the olfactometer. Odors were introduced into the air stream of each arm at the downwind end. […] Odor sources consisted of either RBC-based treatments or headspace extracts. RBC-based treatments included RBCs alone, hRBCs, giRBCs or ippRBCs (RBCs supplemented with HMBPP, gametocytes or IPP), as well as RBCs with supernatants from gametocyte-infected RBCs, or RBCs supplemented with the synthetic odour blend. Headspace extracts collected from hRBCs and giRBCs were used. Treatments including RBCs were heated to 37° C. prior to being pumped (150 ml min^−1) into the airstream of each arm separately. The blend and headspace extracts were delivered to each arm via a wick dispenser. Carbon dioxide (Strandmöllen) was introduced into a plume generator that was placed behind the metal screens to create a homogenous-pulsed flow, which was regulated by a stimulus controller (SEC-2/b, Syntech, Löptin Germany). […]

A. gambiae sensu lato [2] = test: Fosmidomycin assay (feeding on media of FR-900098-treated, IPP-rescued parasite culture); settings: supplemented with IPP, 90 s feeding, FIG. 1D
Experimental: The fosmidomycin assay was carried out as previously described (12). 48 hours (h) after the initiation of antibiotic treatment (FR-900098, the N-acetyl analogue to fosmidomycin), asexual parasite cultures were rescued by supplementation with 200 μM IPP for 48 h of continued passaging. Media from the rescued culture were collected and offered to mosquitoes, in comparison with media from control parasites (without antibiotic treatment). Fifty mosquitoes, isolated in two separate cages, were offered different treatments. Each group was allowed to feed on its own membrane feeder for 90 s.

Structure (SMILES): C/C(=C\CO)CO [(2E)-2-methylbut-2-ene-1,4-diol, reference compound]
- effect on the attraction of mosquitoes to RBCs (A. gambiae sensu lato [1]): had no effect

Structure (SMILES): O=C=O [carbon dioxide, reference compound]
- attraction to RBCs supplemented with carbon dioxide versus hRBCs (A. gambiae s.l.): not sufficient to reproduce the full mosquito attraction to hRBCs

Structure (SMILES): CC(=O)N(O)CCCP(=O)(O)O [fosmidomycin derivative]
- mosquito feeding after block of HMBPP synthesis in tiRBCs (A. gambiae sensu lato [2]): reduction of feeding to control levels
